Active and inactive are the calls of the source. The calls are words filed in the database; no cut-off is given here.
Experiments:
[1] = AUC (0 to infinity) in Sprague-Dawley rat at 10 mg/kg, iv administered as single dose by LC-MS/MS analysis; assay type: ADME, organism-based; design: dose 10 mg/kg, route intravenous, time infinity; details: in vivo
[2] = system: NCI/ADR-RES; assay: Cell cycle arrest in human MCF7/ADR cells assessed as accumulation at G2/M phase at 1 uM after 48 hrs by propidium iodide staining based flow cytometry (reference value: 31.94%); assay type: functional
[3] = system: MCF7; assay: Cell cycle arrest in human MCF7 cells assessed as accumulation at S-phase at 1 uM after 48 hrs by propidium iodide staining based flow cytometry (reference value: 18.39%); assay type: functional
[4] = system: MCF7; assay: Cell cycle arrest in human MCF7 cells assessed as accumulation at G0/G1 phase at 1 uM after 24 hrs by propidium iodide staining based flow cytometry (reference value: 57.83%); assay type: functional
[5] = Plasma concentration in Sprague-Dawley rat at 10 mg/kg, iv administered as single dose measured at 0.5 hrs post dosing by LC-MS/MS analysis; assay type: ADME, organism-based
[6] = system: MCF7; assay: Cell cycle arrest in human MCF7 cells assessed as accumulation at sub-G1 phase at 0.5 uM after 24 hrs by propidium iodide staining based flow cytometry (reference value: 1.78%); assay type: functional
[7] = system: MCF7; assay: Cell cycle arrest in human MCF7 cells assessed as accumulation at S-phase at 1 uM after 24 hrs by propidium iodide staining based flow cytometry (reference value: 18.24%); assay type: functional
[8] = system: MCF7; assay: Cell cycle arrest in human MCF7 cells assessed as accumulation at G2/M phase at 1 uM after 48 hrs by propidium iodide staining based flow cytometry (reference value: 24.26%); assay type: functional
[9] = system: NCI/ADR-RES; assay: Cell cycle arrest in human MCF7/ADR cells assessed as accumulation at S-phase at 1 uM after 24 hrs by propidium iodide staining based flow cytometry (reference value: 25.87%); assay type: functional
[10] = system: MCF7; assay: Cell cycle arrest in human MCF7 cells assessed as accumulation at G2/M phase at 0.5 uM after 48 hrs by propidium iodide staining based flow cytometry (reference value: 24.26%); assay type: functional
[11] = system: NCI/ADR-RES; assay: Cell cycle arrest in human MCF7/ADR cells assessed as accumulation at G0/G1 phase at 0.5 uM after 24 hrs by propidium iodide staining based flow cytometry (reference value: 45.98%); assay type: functional
[12] = system: MCF7; assay: Cell cycle arrest in human MCF7 cells assessed as accumulation at G2/M phase at 1 uM after 24 hrs by propidium iodide staining based flow cytometry (reference value: 22.57%); assay type: functional
[13] = system: NCI/ADR-RES; assay: Cell cycle arrest in human MCF7/ADR cells assessed as accumulation at G0/G1 phase at 0.5 uM after 48 hrs by propidium iodide staining based flow cytometry (reference value: 38.76%); assay type: functional
[14] = Plasma concentration in Sprague-Dawley rat at 10 mg/kg, iv administered as single dose measured at 2 hrs post dosing by LC-MS/MS analysis; assay type: ADME, organism-based
[15] = system: NCI/ADR-RES; assay: Cell cycle arrest in human MCF7/ADR cells assessed as accumulation at G2/M phase at 0.5 uM after 24 hrs by propidium iodide staining based flow cytometry (reference value: 27.75%); assay type: functional
[16] = MRT (0 to infinity) in Sprague-Dawley rat at 10 mg/kg, iv administered as single dose by LC-MS/MS analysis; assay type: ADME, organism-based; details: in vivo
[17] = system: MCF7; assay: Cell cycle arrest in human MCF7 cells assessed as accumulation at G0/G1 phase at 0.5 uM after 48 hrs by propidium iodide staining based flow cytometry (reference value: 57.21%); assay type: functional
[18] = Apparent clearance in Sprague-Dawley rat at 10 mg/kg, iv administered as single dose by LC-MS/MS analysis; assay type: ADME, organism-based; details: in vivo, read-out: CL(app) (converted)
[19] = system: MCF7; assay: Cell cycle arrest in human MCF7 cells assessed as accumulation at G2/M phase at 0.5 uM after 24 hrs by propidium iodide staining based flow cytometry (reference value: 22.57%); assay type: functional
[20] = system: NCI/ADR-RES; assay: Cell cycle arrest in human MCF7/ADR cells assessed as accumulation at sub-G1 phase at 1 uM after 24 hrs by propidium iodide staining based flow cytometry (reference value: 1.08%); assay type: functional
[21] = system: MCF7; assay: Cell cycle arrest in human MCF7 cells assessed as accumulation at sub-G1 phase at 0.5 uM after 48 hrs by propidium iodide staining based flow cytometry (reference value: 0.18%); assay type: functional
[22] = system: NCI/ADR-RES; assay: Downregulation of Cyclin-D1 protein expression in human MCF7/ADR cells at 0.05 to 0.1 uM after 24 to 48 hrs by Western blot analysis; assay type: functional, cell-based
[23] = system: NCI/ADR-RES; assay: Antiproliferative activity against human MCF7/ADR cells after 96 hrs by MTT assay; assay type: functional
[24] = system: NCI/ADR-RES; assay: Cell cycle arrest in human MCF7/ADR cells assessed as accumulation at sub-G1 phase at 0.5 uM after 24 hrs by propidium iodide staining based flow cytometry (reference value: 1.08%); assay type: functional
[25] = AUC (0 to t) in Sprague-Dawley rat at 10 mg/kg, iv administered as single dose by LC-MS/MS analysis; assay type: ADME, organism-based; details: in vivo
[26] = Cmax in Sprague-Dawley rat at 10 mg/kg, iv administered as single dose by LC-MS/MS analysis; assay type: ADME, organism-based; design: dose 10 mg/kg, route intravenous; details: in vivo
[27] = Plasma concentration in Sprague-Dawley rat at 10 mg/kg, iv administered as single dose measured at 4 hrs post dosing by LC-MS/MS analysis; assay type: ADME, organism-based
[28] = system: NCI/ADR-RES; assay: Cell cycle arrest in human MCF7/ADR cells assessed as accumulation at S-phase at 0.5 uM after 48 hrs by propidium iodide staining based flow cytometry (reference value: 29.45%); assay type: functional
[29] = system: MDA-MB-231; assay: Antiproliferative activity against human MDA-MB-231 cells after 96 hrs by MTT assay; assay type: functional; details: MDA-MB-231, 96 h
[30] = system: NCI/ADR-RES; assay: Cell cycle arrest in human MCF7/ADR cells assessed as accumulation at G2/M phase at 0.5 uM after 48 hrs by propidium iodide staining based flow cytometry (reference value: 31.94%); assay type: functional
[31] = Selectivity ratio of GI50 for human MCF7 cells to GI50 for human MCF7/ADR cells; assay type: functional
[32] = system: NCI/ADR-RES; assay: Cell cycle arrest in human MCF7/ADR cells assessed as accumulation at S-phase at 0.5 uM after 24 hrs by propidium iodide staining based flow cytometry (reference value: 25.87%); assay type: functional
[33] = system: NCI/ADR-RES; assay: Effect on P-gp protein expression in human MCF7/ADR cells at 0.05 to 0.1 uM after 24 to 48 hrs by Western blot analysis; assay type: functional, cell-based
[34] = system: NCI/ADR-RES; assay: Cell cycle arrest in human MCF7/ADR cells assessed as accumulation at S-phase at 1 uM after 48 hrs by propidium iodide staining based flow cytometry (reference value: 29.45%); assay type: functional
[35] = system: MCF7; assay: Cell cycle arrest in human MCF7 cells assessed as accumulation at G0/G1 phase at 1 uM after 48 hrs by propidium iodide staining based flow cytometry (reference value: 57.21%); assay type: functional
[36] = Plasma concentration in Sprague-Dawley rat at 10 mg/kg, iv administered as single dose measured at 1 hr post dosing by LC-MS/MS analysis; assay type: ADME, organism-based
[37] = Apparent volume of distribution in Sprague-Dawley rat at 10 mg/kg, iv administered as single dose by LC-MS/MS analysis; assay type: ADME, organism-based; details: in vivo, read-out: Vz
[38] = system: MCF7; assay: Cell cycle arrest in human MCF7 cells assessed as accumulation at S-phase at 0.5 uM after 24 hrs by propidium iodide staining based flow cytometry (reference value: 18.24%); assay type: functional

C[C@H]1[C@@H](Oc2ccc(-c3cc(-c4ccccc4)[nH]n3)cc2)O[C@@H]2O[C@@]3(C)CC[C@H]4[C@H](C)CC[C@@H]1[C@@]24OO3
AUC(0-inf) [1]: 2920 ng·h/mL | Activity [2]: 23.47% | Activity [3]: 2.14% | Activity [4]: 72.58% | concentration at 0.5 h [5]: 583 ng/mL | Activity [6]: 0.44% | Activity [7]: 10.13% | Activity [8]: 11.53% | Activity [9]: 9.75% | Activity [10]: 17.38% | Activity [11]: 50.52% | Activity [12]: 16.98% | Activity [13]: 46.94% | concentration at 2 h [14]: 227 ng/mL | Activity [15]: 26.29% | MRT inf [16]: 2.28 h | Activity [17]: 83.54% | clearance [18]: 57.7 mL/min/kg | Activity [19]: 16.94% | Activity [20]: 4.73% | Activity [21]: 0.38% | Activity [22]: inactive | GI50 [23]: 18 nM | Activity [24]: 1.89% | AUC(0-t) [25]: 2910 ng·h/mL | Cmax [26]: 4460 ng/mL | concentration at 4 h [27]: 147 ng/mL | Activity [28]: 20.41% | GI50 [29]: 240 nM | Activity [30]: 30.15% | RatioGI50 [31]: 11.7 | Activity [32]: 21.64% | Activity [33]: inactive | Activity [34]: 9.72% | Activity [35]: 85.04% | concentration at 1 h [36]: 436 ng/mL | Vd [37]: 18 L/kg | Activity [38]: 11.95%
